Experimental data as given in the CATMoS acute toxicity set (Mansouri et al. 2021).

Assay: GHS categories as the set defines them, by LD50: 1 up to 5, 2 up to 50, 3 up to 300, 4 up to 2000, 5 above 2000 mg/kg
Conditions: rat; in vivo; po
Description: […]The data set underlying the modeling effort for this project was initially compiled by NICEATM and U.S. EPA’s CCTE. Briefly, LD50 data were collected from rat acute oral systemic toxicity tests, including limit tests, ranges/confidence intervals, and discrete LD50 values. The full data set included 21,200 LD50 entries for 15,688 substances. […] Data were reviewed to ensure that LD50 values with obvious errors in the extracted data such as unit conversion errors (e.g., comma and decimal separator misplacements) were either fixed or removed. After this review, 16,209 LD50 values remained. Many of the chemicals represented had multiple LD50 entries, requiring that a single representative value per Chemical Abstracts Service Registry Number (CASRN) identifier be defined to facilitate modeling efforts. Based on ATWG feedback and to define the representative LD50 as a protective value while accounting for the distribution across multiple LD50s, the median of the lowest quartile was computed using only discrete LD50 values (omitting limit test data and range and confidence interval data). A detailed summary of the data compilation is available online on the NICEATM webpage dedicated to the collaborative modeling project (NTP 2020).
[…][…] For categorical designations, limit test and range/confidence interval LD50 data were integrated wherever possible. As such, the number of chemicals with end point values/calls varies across the modeling end points (Table 3) based on whether chemicals had representative LD50 values and/or other data. If a chemical had both, the representative value was used to determine categorical calls rather than limit test data. Some data were useable only for certain end points and categories depending on the thresholds. For example, ranges that spanned multiple hazard categories were considered only for the binary (very toxic/nontoxic) end points and omitted from rendering a determination for hazard category assignment.
[…]The final data set comprising 11,992 chemicals was split into training and evaluation sets […], respectively. This process was performed semirandomly by ordering chemicals based on the five end points (categorical and continuous LD50 values) and partitioning every fourth record into the evaluation set accordingly. This approach was taken to ensure an equivalent distribution of the LD50 values and the different hazard categories between the training and the evaluation sets without supervised sampling of the chemicals based on structures (Figure 1A). The sources of the chemical structures were also kept equivalent between the two sets, with chemical structures obtained from DSSTox, being the highest quality, representing over 75% of each set (Figure 1B).

| Compound | GHS category |
| --- | --- |
| CCCCc1oc2ccc([N+](=O)[O-])cc2c1C(=O)c1ccc(O)cc1 | 5 |
| CCCCCCCCCCCC | 5 |
| CC(C)=CCC(C#N)(CCN1CCCCC1)c1cccc2ccccc12 (centres undefined) | 4 |
| FC(F)(F)C(F)(F)C(F)(F)C(F)(F)N(C(F)(F)C(F)(F)C(F)(F)C(F)(F)F)C(F)(F)C(F)(F)C(F)(F)C(F)(F)F | 5 |
| COC(C)CCO (centres undefined) | 5 |
| CCCCCCC(C)O (centres undefined) | 5 |
| CC(C)NC(=O)N1CCc2nc(N=C(N)N)sc2C1 | 4 |
| CCOC(=O)C(C)(C)Oc1ccc2c(c1)C=C(n1ccnc1)CC2 | 5 |
| CC(C)C1=CC23CCC4C(C)(C(=O)N(C)C)CCCC4(C)C2CC1C1C(=O)OC(=O)C13 (centres undefined) | 5 |
| O=C(O)NN1C(CCCOc2ccc(F)cc2)C[C@H](O)[C@@H]2CCCC[C@H]21 (some centres undefined) | 5 |
| COC(=O)c1cc(F)ccc1[N+](=O)[O-] | 5 |
| Oc1cn2c(n1)Nc1ccc(Cl)c(Cl)c1C2 | 4 |
| CCCCCCCCCCCCCCCCOC(=O)C(CC)CCCC (centres undefined) | 5 |
| CNc1nc(Nc2ccc(C=Cc3ccc(Nc4nc(NC)nc(N(CCO)CCO)n4)cc3S(=O)(=O)O)c(S(=O)(=O)O)c2)nc(N(CCO)CCO)n1 | 5 |
| CCOC(=O)C1=C(C)NC(C[P+](c2ccccc2)(c2ccccc2)c2ccccc2)=C(C(=O)OCC)C1c1cccc([N+](=O)[O-])c1 (centres undefined) | 4 |
| O=C(OCCOCCO)c1cc(O)ccc1Nc1cccc(C(F)(F)F)c1 | 4 |
| N#Cc1c(Cl)nc(Cl)c(C#N)c1-c1ccccc1 | 5 |
| Cc1ccc(NC(=O)c2cc(C)[nH]n2)cc1 | 5 |
| CC(=O)OCC(=O)[C@@]1(OC(C)=O)[C@@H](C)C[C@H]2[C@@H]3C[C@H](F)C4=CC(=O)C=C[C@]4(C)[C@@]3(F)[C@@H](O)C[C@@]21C | 5 |
| CCC[C@H](N[C@@H](C)C(=O)N1[C@H](C(=O)O)C[C@@H]2CCCC[C@@H]21)C(=O)OCC | 5 |

| Compound | GHS category |
| --- | --- |
| CC(=O)Nc1ccc(S(=O)(=O)Cl)cc1 | 5 |
| O=C1NC(=O)c2ccc3c4cccc5cccc(c6ccc1c2c63)c54 | 5 |
| O=C(NC(CCc1ccc2c(c1)OCO2)CCc1ccc2c(c1)OCO2)c1cc2ccccc2o1 | 5 |
| CCOc1ccc(C(=O)NCc2ccc(OCCNC)cc2)cc1OCC | 5 |
| CN1CC(O)C2=C/C(=N/NC(N)=O)C(=O)C=C21 (centres undefined) | 5 |
| Cc1nc(NS(=O)(=O)c2ccc(N)cc2)oc1C | 5 |
| CCN(CCOC(C)OCC(C)C)c1ccc(N=Nc2ccccc2)cc1 (centres undefined) | 4 |
| CC(=O)OC1CCC2C3CCC4CC(=O)CCC4(C)C3CCC12C (centres undefined) | 5 |
| CCN(C(=O)Oc1cccc(NC(=O)OC(C)C)c1)c1ccccc1 | 5 |
| CCCCCCCC/C=C\CCCCCCCC(=O)N(CCCC)CCCC | 5 |
| Cn1c(N)c(NC=O)c(=O)n(C)c1=O | 5 |
| CCCCCCC(O)CCO (centres undefined) | 5 |
| CC1CC(OC(=O)C(C)Oc2ccccc2Cl)CC(C)(C)C1 (centres undefined) | 5 |
| CCCCCC(O)CCO (centres undefined) | 5 |
| CC1=C(CCC(=O)O)c2cc3[nH]c(cc4nc(cc5[nH]c(cc1n2)c(C)c5C(C)O)C(C)=C4C(C)O)c(C)c3CCC(=O)O (centres undefined) | 5 |
| C[C@]12C[C@@H](O)[C@H]3[C@@H](CCC4=CC(=O)CC[C@@H]43)[C@@H]1CCC2=O | 4 |
| CCCCCCCCCCCCCCCC(=O)OCCCCCCCCCCCCCCCC(C)C | 5 |
| O=C(O)c1cc(Nc2ccccc2)c(C(=O)O)cc1Nc1ccccc1 | 5 |
| CC(C)(N=C=O)c1ccc(C(C)(C)N=C=O)cc1 | 5 |
